{
  "source": "patent US11926612B2",
  "about": "“Heterocyclic apelin receptor (APJ) agonists and uses thereof” (Research Triangle Institute, priority 2016, dated 2024)",
  "key": {"[1]": {"assay": "Cellular uptake assay: Caco-2 monolayer permeability (A-to-B / B-to-A)", "assay_type": "in vitro ADME", "details": "human, Papp (B-to-A)/Papp (A-to-B), Caco-2, 5 μM, pH 7.4", "description": "Caco-2 cells (clone C2BBe1) were obtained from American Type Culture Collection (Manassas, VA). Cell monolayers were grown to confluence on collagen-coated, microporous, polycarbonate membranes in 12-well Costar Transwell plates. Details of the plates and their certification are shown below. The permeability assay buffer was Hanks' balanced salt solution (HBSS) containing 10 mM HEPES and 15 mM glucose at a pH of 7.4. The buffer in the receiver chamber also contained 1% bovine serum albumin. The dosing solution concentration was 5 μM for each test article in the assay buffer. Cell monolayers were dosed on the apical side (A-to-B) or basolateral side (B-to-A) and incubated at 37° C. with 5% CO2 in a humidified incubator. Samples were taken from the donor and receiver chambers at 120 minutes. Each determination was performed in duplicate. After the experiment, all assay buffers were removed from the inserts. Cell monolayers were dosed with blank 500 μM lucifer yellow on the A-to-B side and blank HBSS on the B-to-A side and incubated at 37° C. Samples were taken from the B-to-A side at 60 minutes. The flux of lucifer yellow was measured for each monolayer to ensure no damage was inflicted to the cell monolayers during the flux period. All samples were analyzed by LC-MS/MS using electrospray ionization. The apparent permeability (Papp) and percent recovery were calculated as follows: Papp=(dCr/dt)×Vr/(A×CA) (1) Percent Recovery=100×((Vr×Cr^final)+(Vd×Cd^final))/(Vd×CN) (2)\nWhere, dCr/dt is the slope of the cumulative concentration in the receiver compartment versus time in M s^−1;\nVr is the volume of the receiver compartment in cm^3;\nVd is the volume of the donor compartment in cm^3;\nA is the area of the insert (1.13 cm^2 for 12-well Transwell);\nCA is the average of the nominal dosing concentration and the measured 120-minute donor concentration in μM;\nCN is the nominal concentration of the dosing solution in M;\nCr^final is the cumulative receiver concentration in M at the end of the incubation period;\nCd^final is the concentration of the donor in μM at the end of the incubation period.\nEfflux ratio (ER) is defined as Papp (B-to-A)/Papp (A-to-B).\nAbsorption Potential Classification:\nPapp (A-to-B)<1.0×10^−6 cm/s: Low\nPapp (A-to-B) ≥1.0×10^−6 cm/s: High\nSignificant Efflux is defined as: ER≥2.0 and Papp (B-to-A)≥1.0×10^−6 cm/"}, "apelin receptor (APJ)": {"biological_target": "T1, apelin receptor (APJ) (Homo sapiens, UniProt P35414)", "T1 sequence (P35414 1-380)": "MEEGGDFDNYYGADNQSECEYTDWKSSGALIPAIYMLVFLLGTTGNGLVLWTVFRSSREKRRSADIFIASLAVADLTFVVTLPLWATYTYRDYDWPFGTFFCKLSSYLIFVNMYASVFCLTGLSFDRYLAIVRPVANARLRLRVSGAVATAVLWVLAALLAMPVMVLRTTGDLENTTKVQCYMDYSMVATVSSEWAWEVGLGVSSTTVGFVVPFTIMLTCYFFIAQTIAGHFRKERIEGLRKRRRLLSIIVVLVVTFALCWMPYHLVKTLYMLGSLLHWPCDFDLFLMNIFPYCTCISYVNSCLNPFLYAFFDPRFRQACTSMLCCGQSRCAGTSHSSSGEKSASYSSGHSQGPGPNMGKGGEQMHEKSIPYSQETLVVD", "assay": "in vitro activity as apelin agonists (methods of Giddings et al.; Apelin-13 positive control)", "assay_type": "cell-based", "details": "apelin agonist activity, average; read-out: EC50 (nM) Ave", "excerpt": "The compounds above were studied for their in vitro activity as apelin agonists using the methods described by Giddings et al. Giddings et al., 2010 Int J High Thro Screen. 1:39-47, the contents of which are hereby incorporated by reference in its entirety. The methods described in Giddings et al. were used as described and Apelin-13 was a positive control."}},
  "data": [
    {"smiles": "O=C(C[C@H](CCN1CCCC(F)(F)C1)NC(=O)c1cn(-c2ccccc2C(F)(F)F)c(C2CCCC2)n1)NC1CCC1", "note": "[compound 472, (3S)-N-cyclobutyl-3-({2-cyclopentyl-1-[2-(trifluoromethyl)phenyl]-1H-imidazol-4-yl}formamido)-5-(3,3-difluoropiperidin-1-yl)pentanamide]", "values": [
      {"measurement": "efflux ratio at 120 min, 5 μM", "setting": "[1]", "result": 4},
      {"measurement": "EC50", "setting": "apelin receptor (APJ)", "result": 15, "unit": "nM"}
    ]},
    {"smiles": "O=C(O)C[C@H](CCN1CCCC(F)(F)C1)NC(=O)c1nc(C2CCCC2)n(-c2ccccc2C(F)(F)F)n1", "note": "[compound 461, (3S)-3-({5-cyclopentyl-1-[2-(trifluoromethyl)phenyl]-1H-1,2,4-triazol-3-yl}formamido)-5-(3,3-difluoropiperidin-1-yl)pentanoic acid]", "values": [
      {"measurement": "efflux ratio at 120 min, 5 μM", "setting": "[1]", "result": 7},
      {"measurement": "EC50", "setting": "apelin receptor (APJ)", "result": 46, "unit": "nM"}
    ]},
    {"smiles": "O=C(C[C@H](CCN1CCCC(F)(F)C1)NC(=O)c1nc(-c2ncccc2C(F)(F)F)n(C2CCCC2)n1)NC1CCC1", "note": "[compound 530, (3S)-N-cyclobutyl-3-({1-cyclopentyl-5-[3-(trifluoromethyl)pyridin-2-yl]-1H-1,2,4-triazol-3-yl}formamido)-5-(3,3-difluoropiperidin-1-yl)pentanamide]", "values": [
      {"measurement": "efflux ratio at 120 min, 5 μM", "setting": "[1]", "result": 46},
      {"measurement": "EC50", "setting": "apelin receptor (APJ)", "result": 7.5, "unit": "nM"}
    ]},
    {"smiles": "O=C(N[C@@H](CCN1CCCC(F)(F)C1)Cc1nnn[nH]1)c1nc(C2CCCC2)n(-c2ccccc2C(F)(F)F)n1", "note": "[compound 616, 5-cyclopentyl-N-[(2S)-4-(3,3-difluoropiperidin-1-yl)-1-(1H-1,2,3,4-tetrazol-5-yl)butan-2-yl]-1-[2-(trifluoromethyl)phenyl]-1H-1,2,4-triazole-3-carboxamide]", "values": [
      {"measurement": "efflux ratio at 120 min, 5 μM", "setting": "[1]", "result": 17},
      {"measurement": "EC50", "setting": "apelin receptor (APJ)", "result": 9, "unit": "nM"}
    ]}
  ]
}
